The results in this text go back to patent publication US5622962A, “5α-reductase inhibitors” (priority 1995, dated 1997).

Like-named read-outs stand apart in the source and are kept apart here.

Assay [1] concerns the target T1, Type II 5α-Reductase from Human Prostate (Homo sapiens, UniProt P31213).
T1 construct: The same procedure as above was used for preparations using tissue from prostate surgery; from tissue; host or cells: human prostate tissue from surgery, homogenate, 100,000×g pellet
T1 sequence (P31213 1-254): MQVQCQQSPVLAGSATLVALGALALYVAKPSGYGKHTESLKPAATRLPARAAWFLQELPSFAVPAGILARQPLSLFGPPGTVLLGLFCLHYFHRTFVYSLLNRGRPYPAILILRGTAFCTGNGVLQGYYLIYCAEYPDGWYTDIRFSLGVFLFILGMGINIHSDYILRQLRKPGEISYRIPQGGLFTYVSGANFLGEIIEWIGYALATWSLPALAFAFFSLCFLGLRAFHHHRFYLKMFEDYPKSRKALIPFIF
As to the kind of experiment: Human Type II 5α-reductase assay (conversion of [3H]-testosterone to 5α-reduced metabolites). It counts as biochemical.

Assay [2] has as its target T2, Type I 5α-Reductase from Human Scalp (Homo sapiens, UniProt P18405).
T2 construct: Scalp punch biopsies from graft recipient sites were obtained from human hair transplant procedures; from tissue; host or cells: human scalp punch biopsies (hair transplant graft recipient sites), homogenate, 100,000×g pellet
T2 sequence (P18405 1-259): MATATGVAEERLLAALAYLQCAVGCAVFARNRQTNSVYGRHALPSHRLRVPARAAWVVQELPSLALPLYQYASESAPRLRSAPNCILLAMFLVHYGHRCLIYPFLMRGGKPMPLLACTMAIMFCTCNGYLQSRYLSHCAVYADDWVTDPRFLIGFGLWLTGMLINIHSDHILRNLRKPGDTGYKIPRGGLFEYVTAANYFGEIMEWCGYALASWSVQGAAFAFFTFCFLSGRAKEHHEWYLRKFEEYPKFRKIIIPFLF
As to the kind of experiment: Human Type I 5α-reductase assay (conversion of [3H]-testosterone to 5α-reduced metabolites). Format: biochemical.

Setting [3] is: pH 5.5, 0.3 μM, sodium acetate pH 5.5, 25°, 30 min, compared to control reaction mixtures, read-out: percent inhibition of Type II AR.
Where [4] appears, read: pH 7.5, 0.3 μM, 50 nM [3H]-testosterone, pH 7.5, 25°, 180 min, compared to control reaction mixtures, read-out: percent inhibition of Type I AR.

What is called inhibition is the relative decrease from the control value, in per cent. For `C[C@]12CCC(=O)N[C@@H]1CCc1cc(Sc3ccccn3)ccc12` [Example 21, (4aR)-(10bR)-8-(2-pyridinylthio)-10b-methyl-1,2,3,4,4a,5,6,10b-octahydrobenzo[f]quinolin-3-one], the inhibition at 0.3 µM in assay [1] (setting [3]) was determined as 42%; in assay [2] (setting [4]), 27%.
With `C[C@]12CCC(=O)N[C@@H]1CCc1cc(SCc3ccccc3)ccc12` [Example 23, (4aR)-(10bR)-8-benzylthio-10b-methyl-1,2,3,4,4a,5,6,10b-octahydrobenzo[f]quinolin-3-one], the values for the inhibition at 0.3 µM in assay [1] (setting [3]) and in assay [2] (setting [4]) were 31% and 59%, respectively.
For the molecule `CN1C(=O)CC[C@]2(C)c3ccc(-c4ccc(Cl)c(C(F)(F)F)c4)cc3CC[C@@H]12` [Example 24, (+)-(4aR)-(10bR)-4-methyl-8-(4-chloro-3-trifluoromethylphenyl)-10b-methyl-1,2,3,4,4a,5,6,10b-octahydrobenzo[f]-quinolin-3-one], the inhibition at 0.3 µM in assay [1] (setting [3]) stood at 28%; in assay [2] (setting [4]) it was 88%.
For `CN1C(=O)CC[C@]2(C)c3ccc(-c4ccc(O)c(Cl)c4)cc3CC[C@@H]12` [Example 25, (+)-(4aR)-(10bR)-4-methyl-8-(3-chloro-4-hydroxyphenyl)-10b-methyl-1,2,3,4,4a,5,6,10b-octahydrobenzo[f]quinolin-3-one], the inhibition at 0.3 µM in assay [1] (setting [3]) amounted to 31%; in assay [2] (setting [4]), 83%.
For `CN1C(=O)CC[C@]2(C)c3ccc(-c4ccc(O)c(F)c4)cc3CC[C@@H]12` [Example 28, (+)-(4aR)-(10bR)-4-methyl-8-(3-fluoro-4-hydroxyphenyl)-10b-methyl-1,2,3,4,4a,5,6,10b-octahydrobenzo[f]quinolin-3-one] the same measures were 36% and 65%.
For `CN1C(=O)CC[C@]2(C)c3ccc(-c4ccc5c(c4)OCCO5)cc3CC[C@@H]12` [Example 29, (+)-(4aR)-(10bR)-4-methyl-8-(3,4-ethylenedioxyphenyl)-10b-methyl-1,2,3,4,4a,5,6,10b-octahydrobenzo[f]quinolin-3-one] the same measures were 26% and 78%.
For `CN1C(=O)CC[C@]2(C)c3ccc(-c4cc(C(C)(C)C)c(O)c(C(C)(C)C)c4)cc3CC[C@@H]12` [Example 30, (+)-(4aR)-(10bR)-4-methyl-8-(3,5-di [t-butyl]-4-hydroxyphenyl)-10b-methyl-1,2,3,4,4a,5,6,10b-octahydrobenzo[f]quinolin-3-one] the same measures were 21% and 19%.
Turning to `CN1C(=O)CC[C@]2(C)c3ccc(-c4ccc(F)cc4C(F)(F)F)cc3CC[C@@H]12` [Example 31, (+)-(4aR)-(10bR)-4-methyl-8-(2-trifluoromethyl-4-fluorophenyl)-10b-methyl-1,2,3,4,4a,5,6,10b-octahydrobenzo[f]-quinolin-3-one], the inhibition at 0.3 µM was 22% in assay [1] (pH 5.5, read-out: percent inhibition of Type II AR) and 84% in assay [2] (pH 7.5, read-out: percent inhibition of Type I AR).
Take `CN1C(=O)CC[C@]2(C)c3ccc(-c4ccc(NC(=O)C(C)(C)C)c5ccccc45)cc3CC[C@@H]12` [Example 32, (+)-(4aR)-(10bR)-4-methyl-8-(1-[4-t-butylcarbonylamino]naphthyl)-10b-methyl-1,2,3,4,4a,5,6,10b-octahydrobenzo[f]-quinolin-3-one]: the inhibition at 0.3 µM in assay [1] (setting [3]) was determined as 18%; in assay [2] (setting [4]), 71%.
On to `CN1C(=O)CC[C@]2(C)c3ccc(-c4cc(C(F)(F)F)ccc4Cl)cc3CC[C@@H]12` [Example 33, (+)-(4aR)-(10bR)-4-methyl-8-(2-chloro-5-trifluoromethylphenyl)-10b-methyl-1,2,3,4,4a,5,6,10b-octahydrobenzo[f]-quinolin-3-one], for which the results for the inhibition at 0.3 µM in assay [1] (setting [3]) and in assay [2] (setting [4]) were 40% and 55%, respectively.
For `CN1C(=O)CC[C@]2(C)c3ccc(-c4cccc(C(=O)NC(C)(C)C)c4)cc3CC[C@@H]12` [Example 34, (+)-(4aR)-(10bR)-4-methyl-8-(3-t-butylcarboxamidophenyl)-10b-methyl-1,2,3,4,4a,5,6,10b-octahydrobenzo[f]quinolin-3-one] the same measures were 5% and 13%.
For `CCN(CC)C(=O)c1c(-c2ccc3c(c2)CC[C@H]2N(C)C(=O)CC[C@]32C)ccc2ccccc12` [Example 35, (+)-(4aR)-(10bR)-4-methyl-8-(2-[1-diethylcarboxamido]naphthyl)-10b-methyl-1,2,3,4,4a,5,6,10b-octahydrobenzo[f]-quinolin-3-one] the same measures were 27% and 17%.
On to `COc1cc(-c2ccc3c(c2)CC[C@H]2N(C)C(=O)CC[C@]32C)ccc1O` [Example 36, (+)-(4aR)-(10bR)-4-methyl-8-(4-hydroxy-3-methoxyphenyl)-10b-methyl-1,2,3,4,4a,5,6,10b-octahydrobenzo[f]quinolin-3-one], for which the inhibition at 0.3 µM amounted to 52% in assay [1] (setting [3]) and 41% in assay [2] (setting [4]).
For `CN1C(=O)CC[C@]2(C)c3ccc(-c4ccc(NC(=O)C(C)(C)C)cc4)cc3CC[C@@H]12` [Example 37, (+)-(4aR)-(10bR)-4-methyl-8-(4-t-butylcarbonylaminophenyl)-10b-methyl-1,2,3,4,4a,5,6,10b-octahydrobenzo[f]quinolin-3-one] the same measures were 58% and 72%.
On to `CN1C(=O)CC[C@]2(C)c3ccc(-c4ccccc4F)cc3CC[C@@H]12` [Example 38, (+)-(4aR)-(10bR)-4-methyl-8-(2-fluorophenyl)-10b-methyl-1,2,3,4,4a,5,6,10b-octahydrobenzo[f]quinolin-3-one], for which, in assay [1] (0.3 μM, sodium acetate pH 5.5, 25°, 30 min, compared to control reaction mixtures), the “percent inhibition of Type II AR” value is listed as 38%. Moreover, the inhibition at 0.3 µM in assay [1] (setting [3]) was found to be 56%; in assay [2] (setting [4]), 84%.
Take `COc1ccccc1-c1ccc2c(c1)CC[C@H]1N(C)C(=O)CC[C@]21C` [Example 39, (+)-(4aR)-(10bR)-4-methyl-8-(2-methoxyphenyl)-10b-methyl-1,2,3,4,4a,5,6,10b-octahydrobenzo[f]quinolin-3-one]: the inhibition at 0.3 µM in assay [1] (setting [3]) was 34%; in assay [2] (setting [4]), 81%.
For `Cc1ccccc1-c1ccc2c(c1)CC[C@H]1N(C)C(=O)CC[C@]21C` [Example 40, (+)-(4aR)-(10bR)-4-methyl-8-(2-methylphenyl)-10b-methyl-1,2,3,4,4a,5,6,10b-octahydrobenzo[f]quinolin-3-one] the same measures were 35% and 90%.
On to `CN1C(=O)CC[C@]2(C)c3ccc(-c4ccccc4Cl)cc3CC[C@@H]12` [Example 41, (+)-(4aR)-(10bR)-4-methyl-8-(2-chlorophenyl)-10b-methyl-1,2,3,4,4a,5,6,10b-octahydrobenzo[f]quinolin-3-one], for which the inhibition at 0.3 µM in assay [1] (setting [3]) was 18%; in assay [2] (setting [4]) it was 88%.
For `CN1C(=O)CC[C@]2(C)c3ccc(-c4ccccc4C(F)(F)F)cc3CC[C@@H]12` [Example 43, (+)-(4aR)-(10bR)-4-methyl-8-(2-trifluoromethylphenyl)-10b-methyl-1,2,3,4,4a,5,6,10b-octahydrobenzo[f]quinolin-3-one] the same measures were 18% and 68%.
Turning to `CN1C(=O)CC[C@]2(C)c3ccc(-c4ccc(F)c(C(F)(F)F)c4)cc3CC[C@@H]12` [Example 46, (+)-(4aR)-(10bR)-4-methyl-8-(4-fluoro-3-trifluoromethylphenyl)-10b-methyl-1,2,3,4,4a,5,6,10b-octahydrobenzo[f]-quinolin-3-one], the inhibition at 0.3 µM is 31% in assay [1] (setting [3]) and 3% in assay [2] (setting [4]).
In the case of `CN1C(=O)CC[C@]2(C)c3ccc(-c4ccccc4)cc3CC[C@@H]12` [Example 49, (+)-(4aR)-(10bR)-4-methyl-8-phenyl-10b-methyl-1,2,3,4,4a,5,6,10b-octahydrobenzo[f]quinolin-3-one], the figures for the inhibition at 0.3 µM in assay [1] (setting [3]) and in assay [2] (setting [4]) were 4% and 96%, respectively.
Turning to `CN1C(=O)CC[C@]2(C)c3ccc(-c4ccc(Cl)cc4)cc3CC[C@@H]12` [Example 50, (+)-(4aR)-(10bR)-4-methyl-8-(4-chlorophenyl)-10b-methyl-1,2,3,4,4a,5,6,10b-octahydrobenzo[f]quinolin-3-one], the inhibition at 0.3 µM in assay [1] (setting [3]) turned out to be 32%; in assay [2] (setting [4]), 95%. In addition, the “percent inhibition of Type I AR” value in assay [2] (0.3 μM, 50 nM [3H]-testosterone, pH 7.5, 25°, 180 min, compared to control reaction mixtures) was determined as 94%.
`Cc1ccc(-c2ccc3c(c2)CC[C@H]2N(C)C(=O)CC[C@]32C)cc1` [Example 51, (+)-(4aR)-(10bR)-4-methyl-8-(4-methylphenyl)-10b-methyl-1,2,3,4,4a,5,6,10b-octahydrobenzo[f]quinolin-3-one]: the inhibition at 0.3 µM in assay [1] (setting [3]) is 14%; in assay [2] (setting [4]) it was 91%.
